Assay results reported in patent publication US12421207B2 (CMG Pharmaceutical Co., Ltd., priority 2022, dated 2025).
Read-outs that look alike come from different tables or passages of the source. Values belong to the molecule of their own block, whether it stands above or below them.

Experiments:
MER = biological target: T1, MER (Homo sapiens, UniProt Q12866); test: Enzymatic kinase assay (ADP-Glo), MER; format: biochemical; details: poly (Glu4, Tyr1) substrate, 60 min room temperature, ADP-GLO luminescence
T1 sequence (Q12866 21-999): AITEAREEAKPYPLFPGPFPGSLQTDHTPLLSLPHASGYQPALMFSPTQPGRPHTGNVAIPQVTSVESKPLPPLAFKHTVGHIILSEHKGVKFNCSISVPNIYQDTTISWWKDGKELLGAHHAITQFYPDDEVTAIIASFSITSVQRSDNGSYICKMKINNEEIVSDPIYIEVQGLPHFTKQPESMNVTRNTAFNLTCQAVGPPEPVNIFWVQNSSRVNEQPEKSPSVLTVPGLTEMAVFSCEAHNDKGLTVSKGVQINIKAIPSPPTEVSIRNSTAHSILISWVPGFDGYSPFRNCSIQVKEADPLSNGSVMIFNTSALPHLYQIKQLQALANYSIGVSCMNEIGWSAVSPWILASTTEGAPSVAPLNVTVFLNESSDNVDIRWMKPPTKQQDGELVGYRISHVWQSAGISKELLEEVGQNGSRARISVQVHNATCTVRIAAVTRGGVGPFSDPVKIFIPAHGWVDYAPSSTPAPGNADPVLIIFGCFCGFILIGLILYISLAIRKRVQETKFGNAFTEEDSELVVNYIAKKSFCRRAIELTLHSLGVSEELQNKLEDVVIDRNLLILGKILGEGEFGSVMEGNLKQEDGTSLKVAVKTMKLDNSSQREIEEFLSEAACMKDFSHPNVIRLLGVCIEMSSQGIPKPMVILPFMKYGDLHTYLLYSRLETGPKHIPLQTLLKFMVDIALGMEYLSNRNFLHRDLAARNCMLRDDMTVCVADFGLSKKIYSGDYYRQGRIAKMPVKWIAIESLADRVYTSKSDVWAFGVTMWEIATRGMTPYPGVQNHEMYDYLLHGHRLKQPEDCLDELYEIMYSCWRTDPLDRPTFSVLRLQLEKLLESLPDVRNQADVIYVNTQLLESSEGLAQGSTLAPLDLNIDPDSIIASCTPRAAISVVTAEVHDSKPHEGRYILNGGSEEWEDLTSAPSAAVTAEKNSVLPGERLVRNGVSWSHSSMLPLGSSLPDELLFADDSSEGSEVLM
Method: (§1) All the kinase reactions were performed in 5 μL using tyrosine kinase buffer with 0.2 μg/μL poly (Glu4, Tyr1) substrate, 10 µM ATP, serial dilution of the inhibitor, and incubated at room temperature for 60 min. After the indicated incubation times, 5 μL ADP-GLO™ reagent (Promega, Madison, WI) was added to the reactions and the plate was incubated at room temperature for 40 min. Then, 10 μL of kinase detection reagent was added and after an incubation time of 40 min, luminescence was recorded and IC50 values were determined (Table 1). All 384-well assay plates were read using a GLOMAX™ Discover Microplate Luminometer from Promega (Madison, WI). To plot, analyze the data and calculate all kinase reaction biochemical values, both Microsoft Excel and Prism from GraphPad 7 Software (La Jolla, CA) were used.
All the kinase reactions were performed in 5 μL using tyrosine kinase buffer with 0.2 μg/μL poly (Glu4, Tyr1) substrate, 10 µM ATP, serial dilution of the inhibitor, and incubated at room temperature for 60 min. After the indicated incubation times, 5 μL ADP-GLO™ reagent (Promega, Madison, WI) was added to the reactions and the plate was incubated at room temperature for 40 min. […] All 384-well assay plates were read using a GLOMAX™ Discover Microplate Luminometer from Promega (Madison, WI). […]

HCC827/GR cells = test: Cell viability assay (CellTiter-Glo 2.0), gefitinib-resistant HCC827/GR cells; format: cell-based, human; details: 72 h drug treatment, read-out: Relative cell viability, IC50 HCC827GR
In short: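 Gefitinib-resistant HCC827 cells, derived by over 3 months' escalating EGFR TKI exposure, seeded at 1,000 cells/well. Treated 72 h with a 10-point dose range from 1 nM to 10,000 nM. Viability read by CellTiter-Glo 2.0 luminescence.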

HCC827/ER cells = test: Cell viability assay (CellTiter-Glo 2.0), erlotinib-resistant HCC827/ER cells; format: cell-based, human; details: 72 h drug treatment, read-out: Relative cell viability, IC50 HCC827ER
Text: (§2) To explore c-MET and AXL mechanisms of EGFR TKI resistance, resistant cells of the EGFR TKI hypersensitive EGFR exon 19 mutant NSCLC cell line, HCC827 and PC9 were generated by exposing these cells to increasing concentrations of EGFR TKI for over 3 months.
(§3) Gefitinib-resistant cells were referred to as HCC827/GR. […] Osimertinib-resistant cells were referred to as HCC827/OR.

AXL = biological target: T2, AXL (Homo sapiens, UniProt P30530); test: Enzymatic kinase assay (ADP-Glo), AXL; format: biochemical; details: poly (Glu4, Tyr1) substrate, 60 min room temperature, ADP-GLO luminescence
T2 sequence (P30530 26-894): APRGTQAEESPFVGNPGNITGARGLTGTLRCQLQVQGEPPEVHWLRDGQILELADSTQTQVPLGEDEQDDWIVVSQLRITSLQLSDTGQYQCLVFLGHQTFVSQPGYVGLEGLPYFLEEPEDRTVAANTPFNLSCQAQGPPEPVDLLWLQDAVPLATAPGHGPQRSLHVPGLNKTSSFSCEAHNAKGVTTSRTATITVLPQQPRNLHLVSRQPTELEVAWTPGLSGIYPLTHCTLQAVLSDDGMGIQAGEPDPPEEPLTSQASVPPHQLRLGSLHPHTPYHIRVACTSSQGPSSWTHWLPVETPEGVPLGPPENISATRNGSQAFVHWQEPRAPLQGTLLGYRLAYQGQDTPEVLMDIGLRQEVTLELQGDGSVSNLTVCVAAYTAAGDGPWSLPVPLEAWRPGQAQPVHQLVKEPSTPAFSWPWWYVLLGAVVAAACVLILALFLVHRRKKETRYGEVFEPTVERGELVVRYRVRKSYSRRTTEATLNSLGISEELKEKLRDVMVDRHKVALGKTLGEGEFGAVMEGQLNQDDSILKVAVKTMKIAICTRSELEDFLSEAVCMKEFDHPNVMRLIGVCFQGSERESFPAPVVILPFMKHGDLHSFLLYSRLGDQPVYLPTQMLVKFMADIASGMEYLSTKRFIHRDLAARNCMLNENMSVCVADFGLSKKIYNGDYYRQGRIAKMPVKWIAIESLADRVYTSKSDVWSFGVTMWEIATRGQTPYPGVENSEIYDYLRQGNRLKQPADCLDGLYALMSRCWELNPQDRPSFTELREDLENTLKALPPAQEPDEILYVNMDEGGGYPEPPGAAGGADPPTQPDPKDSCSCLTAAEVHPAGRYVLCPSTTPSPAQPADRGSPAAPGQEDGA
Method: as §1, with “Then, 10 μL of kinase detection reagent was added and after an incubation time of 40 min, luminescence was recorded and IC50 values were determined (Table 1).” left out

HCC827/OR cells = test: Cell viability assay (CellTiter-Glo 2.0), osimertinib-resistant HCC827/OR cells; format: cell-based, human
Text: as §2, §3

PC9/ER cells = test: Cell viability assay (CellTiter-Glo 2.0), erlotinib-resistant PC9/ER cells; format: cell-based
Text: as §2, §3

c-MET = c-MET (Homo sapiens, UniProt P08581); test: Enzymatic kinase assay (ADP-Glo), c-MET; format: biochemical; details: poly (Glu4, Tyr1) substrate, 60 min room temperature, ADP-GLO luminescence
Method: as §1, with “Then, 10 μL of kinase detection reagent was added and after an incubation time of 40 min, luminescence was recorded and IC50 values were determined (Table 1).” left out

PC9 cells = test: Cell viability assay, parental PC9 cells; format: cell-based; details: Homo sapiens, PC-9; parental EGFR TKI-sensitive cells
Method: (§4) The human cell line HCC827 was purchased from the American Type Culture Collection (Manassas, VA), and the PC9 cell line was obtained from RIKEN Cell Bank (Ibaraki, Japan). […] Gefitinib-resistant cells were referred to as HCC827/GR. […] Osimertinib-resistant cells were referred to as HCC827/OR.
(§5) Cell viability assays were carried out by plating 1,000 cells per well of HCC827 or PC9 resistant cells, respectively, into white transparent-bottom 384-well plates. The cells were treated with each TKI across a 10-dose range from 1 nM to 10,000 nM. After 72 h of drug treatment, cell viability was measured using the CellTiter-Glo 2.0 assay (Promega, Madison, WI).

HCC827 cells = test: cells; details: Homo sapiens, HCC827, read-out: EGFR TKI IC50 in HCC827 cells
Method: as §4, §5

[1] = Table 2, EGFR TKI resistant cells, combination with EGFR TKI
[2] = Table 4, combinations of EGFR TKIs and inhibitor of Formula (I)

Sequence of c-MET (P08581 25-1390): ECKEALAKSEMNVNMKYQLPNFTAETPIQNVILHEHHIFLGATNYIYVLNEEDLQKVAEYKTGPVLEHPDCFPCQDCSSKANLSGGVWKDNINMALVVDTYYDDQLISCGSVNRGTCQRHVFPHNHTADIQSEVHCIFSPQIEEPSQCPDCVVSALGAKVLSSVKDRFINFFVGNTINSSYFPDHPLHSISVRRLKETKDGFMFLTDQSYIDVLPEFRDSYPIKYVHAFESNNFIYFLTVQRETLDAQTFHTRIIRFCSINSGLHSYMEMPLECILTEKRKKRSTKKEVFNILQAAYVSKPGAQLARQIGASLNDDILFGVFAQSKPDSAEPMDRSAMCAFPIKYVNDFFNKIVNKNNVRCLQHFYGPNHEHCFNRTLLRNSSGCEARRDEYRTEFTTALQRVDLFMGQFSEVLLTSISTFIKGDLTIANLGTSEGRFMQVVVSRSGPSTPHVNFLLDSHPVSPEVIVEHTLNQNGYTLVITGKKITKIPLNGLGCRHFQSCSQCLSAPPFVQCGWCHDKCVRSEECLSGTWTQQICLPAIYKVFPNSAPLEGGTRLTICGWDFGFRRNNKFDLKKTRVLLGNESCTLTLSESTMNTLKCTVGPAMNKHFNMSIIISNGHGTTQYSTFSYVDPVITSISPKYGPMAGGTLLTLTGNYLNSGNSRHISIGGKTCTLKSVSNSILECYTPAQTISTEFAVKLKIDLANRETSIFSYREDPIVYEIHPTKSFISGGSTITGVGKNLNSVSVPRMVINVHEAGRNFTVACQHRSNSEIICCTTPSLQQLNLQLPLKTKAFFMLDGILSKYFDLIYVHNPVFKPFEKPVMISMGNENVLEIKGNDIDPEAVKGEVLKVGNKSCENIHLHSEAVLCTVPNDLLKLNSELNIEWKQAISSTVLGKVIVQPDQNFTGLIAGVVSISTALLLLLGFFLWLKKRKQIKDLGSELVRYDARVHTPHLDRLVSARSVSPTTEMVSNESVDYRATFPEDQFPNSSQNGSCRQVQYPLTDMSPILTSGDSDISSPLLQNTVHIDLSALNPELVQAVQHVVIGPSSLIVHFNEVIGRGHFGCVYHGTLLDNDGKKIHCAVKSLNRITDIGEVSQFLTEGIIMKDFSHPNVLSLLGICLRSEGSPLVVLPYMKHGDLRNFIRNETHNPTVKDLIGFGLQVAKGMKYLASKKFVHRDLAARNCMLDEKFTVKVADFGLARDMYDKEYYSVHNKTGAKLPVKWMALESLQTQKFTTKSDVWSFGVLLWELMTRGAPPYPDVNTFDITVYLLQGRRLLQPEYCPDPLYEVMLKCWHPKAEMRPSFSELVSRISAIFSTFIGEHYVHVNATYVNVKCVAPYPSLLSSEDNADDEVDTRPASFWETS

IC50 (MER; Table 1): < 100 nM
IC50 (HCC827/GR cells; [1]): < 100 nM
IC50 (HCC827/ER cells; [1]): < 100 nM
IC50 (AXL; Table 1): < 10 nM
IC50 (HCC827/OR cells; Table 2, 72 h drug treatment, EGFR TKI resistant cells, combination with EGFR TKI, read-out: Relative cell viability, IC50 HCC827OR): < 100 nM
IC50 (PC9/ER cells; Table 2, 72 h drug treatment, EGFR TKI resistant cells, combination with EGFR TKI, read-out: Relative cell viability, IC50 PC9ER): < 10000 nM
IC50 (c-MET; Table 1): < 10 nM
Molecule: CC(C)c1c(Oc2ccc(NC(=O)c3cn(C(C)C)c(=O)n(-c4ccc(F)cc4)c3=O)cc2F)ccnc1N [Example 8]

Molecule: C#Cc1cccc(Nc2ncnc3cc(OCCOC)c(OCCOC)cc23)c1 [erlotinib, reference compound]
IC50 (PC9/ER cells; Homo sapiens, PC-9/ER, read-out: EGFR TKI IC50 in PC9/ER): > 10000 nM
higher resistance than the parental cells, PC9/ER (PC9/ER cells; PC9/ER versus parental PC9): 1,000 fold
IC50 (PC9 cells): < 10 nM

Molecule: C=CC(=O)Nc1cc(Nc2nccc(-c3cn(C)c4ccccc34)n2)c(OC)cc1N(C)CCN(C)C [osimertinib, reference compound]
IC50 (HCC827 cells): < 0.3 nM
higher resistance than the parental cells, HCC827/OR (HCC827/OR cells; HCC827/OR versus parental HCC827): 3,000 fold
IC50 (HCC827/OR cells; Homo sapiens, HCC827, read-out: EGFR TKI IC50 in HCC827/OR cells): > 1000 nM

IC50 (MER; Table 3): < 10 nM
IC50 (HCC827/GR cells; [2]): < 1000 nM
IC50 (HCC827/ER cells; [2]): < 1000 nM
IC50 (AXL; Table 3): < 10 nM
IC50 (HCC827/OR cells; Table 4, 72 h drug treatment, combinations of EGFR TKIs and inhibitor of Formula (I), read-out: Relative cell viability, IC50 HCC827OR): < 10000 nM
IC50 (PC9/ER cells; Table 4, 72 h drug treatment, combinations of EGFR TKIs and inhibitor of Formula (I), read-out: Relative cell viability, IC50 PC9ER): < 1000 nM
IC50 (c-MET; Table 3): < 100 nM
Molecule: N-(4-(2-amino-3-(3-piperidin-4-yl)prop-1-ynyl)pyridin-4-yloxy)-3-fluorophenyl)-3-cyclohexyl-1-ethyl-2,4-dioxo-1,2,3,4-tetrahydropyrimidine-5-carboxamide [Example 65]
